Results: patent publication US20030157088A1, “Compositions containing enzymes stabilized with inhibitors having certain binding properties and methods for using such compositions in personal care” (The Proctor & Gamble Company, priority 2001, published 2003)

test system: skin; settings: in vivo

For `CCCCCCCCCCO[C@@H]1O[C@H](CO)[C@@H](O)[C@H](O)[C@H]1O` [Decyl glucoside, decyl glucoside], the “irritation of the skin” value was “not increase irritation of the skin”.

biological target: subtilisin; format: biochemical; settings: approximate values; Ki=[E]*[I]/[EI]; read-out: inhibition constant (Ki)
Excerpt: Typically a safe and effective amount will range from 0.00005% to 5%, preferably from 0.005% to 2%, more preferably from 0.025% to 1%. Ki values reported herein are approximate values and may be measured, e.g. using the method set forth in “Kinetcs of Subtilisin and Thiolsubtilisin“, Philipp, M. and Bender, M. L., Molecular & Cellular Biochemistry, vol. 51, pages 5-32 (1983). Another suitable method is set forth in “Protease Stabilization by Carboxylic Acid Salts: Relative Efficencies and Mechanisms,” Crossin, Michael C., J.A.O.C.S. vol. 66, no. 7, pages 1010-1014 (July 1989). […] The inhibition constant (Ki) is defined as the concentration of inhibitor required to inhibit an enzyme's activity by 50%, and may be represented as Ki=[E]*[I]/[EI], wherein E is enzyme, I is inhibitor, and EI is enzyme-inhibitor complex.

Point of comparison: `CC(=O)N[C@@H](CC(C)C)C(=O)N[C@@H](CC(C)C)C(=O)N[C@H](C=O)CCCNC(=N)N` [leupeptide], Ki 230 µM. Against it:
- CCCCB(O)O [butylboronic acid] — 31-fold higher, 7200 µM
- OB(O)O [boric acid] — higher, > 1000 µM
- Streptomyces subtilisin inhibitor [Streptomyces subtilisin inhibitor (SSI)] — lower, < 0.001 µM
- OB(O)c1ccccc1 [phenylboronic acid] — within 1.5-fold, 160 µM
